{"source": "paper PMC6627558", "about": "“Structures and Bioactivities of Six New Triterpene Glycosides, Psolusosides E, F, G, H, H1, and I and the Corrected Structure of Psolusoside B from the Sea Cucumber Psolus fabricii” (Marine Drugs, 2019)", "key": {"[1]": {"tested_on": "mouse erythrocytes", "test": "Hemolytic activity against mouse erythrocytes", "type": "cell-based", "details": "24 h at 37 °C, read-out: Cytotoxicity EC50, Erhythrocytes (hemolytic activity)", "protocol": "Blood was taken from CD-1 mice (18–20 g). The mice were anesthetized with diethyl ether, their chests were rapidly opened, and blood was collected in cold (4 °C) 10 mM phosphate-buffered saline, pH 7.4 (PBS) without anticoagulant. Erythrocytes were washed 3 times in PBS using at least 10 vol. of washing solution by centrifugation (2000 rpm) for 5 min. Erythrocytes were used at a concentration that provided an optical density of 1.0 at 700 nm for a non-hemolyzed sample. Then, 20 μL of a water solution of test substance with a fixed concentration was added to a well of a 96-well plate containing 180 μL of the erythrocyte suspension. Erythrocyte suspension was incubated with substances for 24 h at 37 °C. After that, the optical density of the obtained solutions was measured and ED50 for hemolytic activity of each compound was calculated."}, "[2]": {"tested_on": "ascite form of mouse Ehrlich carcinoma cells", "test": "Cytotoxic activity against ascite form of mouse Ehrlich carcinoma cells (nonspecific esterase / MTT assay)", "type": "cell-based", "protocol": "(§1) The museum tetraploid strain of murine ascite Ehrlich carcinoma cells from the All-Russian Oncology Center (Moscow, Russia) was used. The cells were separated from the ascites, which were collected on day 7 after inoculation in mouse CD-1 line. The cells were washed of the ascites triply and resuspended in RPMI-1640 medium containing 8 μg/mL gentamicin (BioloT, St-Petersburg, Russia). Neuroblastoma Neuro 2A cells were cultured in DMEM medium containing 10% fetal bovine serum (FBS), (BioloT, St-Petersburg, Russia) and normal epithelial JB-6 cells were cultured in DMEM medium containing 5% fetal bovine serum (FBS), (BioloT, St-Petersburg, Russia) and 1% penicillin/streptomycine (Invitrogen). The HT-29 (ATCC # HTB-38) human colon cancer cell line was grown in monolayer in McCoy’s 5A medium supplemented with 10% (v/v) heat-inactivated FBS, 2 mM L-glutamine, and 1% penicillin-streptomycin in a humidified atmosphere containing 5% CO2. Cells were maintained in a sterile environment and kept in an incubator at 5% CO2 and 37 °C to promote growth. HT-29 cells were sub-cultured every 3–4 days by rinsing with phosphate buffered saline (PBS), adding trypsin to detach the cells from the tissue culture flask, and transferring 10%–20% of the harvested cells to a new flask containing fresh growth media.\n(§2) Cytotoxic activity against ascite form of mouse Ehrlich carcinoma cells was investigated by nonspecific esterase activity assay. In total, 10µL of the test substance solution and 100 μL of the cell suspension were placed into each well of a 96-well microplate. The plate was incubated in a CO2 incubator at 37 °C for 1 or 24 h. A stock solution of the probe fluorescein diacetate (FDA; Sigma, St. Louis, MO, USA) in DMSO (1 mg/mL) was prepared. After incubation of the cells with test compounds, 10 μL of FDA solution (50 μg/mL) was added to each well and the plate was incubated at 37 °C for 15 min. Cells were washed with PBS, and fluorescence was measured with a Fluoroskan Ascent plate reader (Thermo Labsystems, Helsinky, Finland) at λex = 485 nm and λem = 518 nm. All experiments were repeated in triplicate. Cytotoxic activity was expressed as the percent of cell viability. Nonspecific esterase activity assay has been used for determination of cytotoxicity against neuroblastoma Neuro 2A and normal epithelial JB-6 cells.\nThe solutions of tested substances in different concentrations (20 µL) and cell suspension (200 µL) were added in wells of 96-well plate and incubated over night at 37 °C and 5% CO2. After incubation, the cells were sedimented by centrifugation, 200 µL of medium from each well were collected, and 100 µL of pure medium were added. Then, 10 µL of MTT solution […] (Sigma, St. Louis, MO, USA) were added in each well. The plate was incubated for 4 h, after which 100 µL SDS-HCl were added to each well, and the plate was incubated at 37 °C for 4–18 h. Optical density was measured at 570 nm and 630–690 nm. Cytotoxic activity of the substances was calculated as the concentration that caused 50% metabolic cell activity inhibition (IC50). The MTT assay has been used for determination of cytotoxic activity against Ehrlich carcinoma cells."}, "[3]": {"tested_on": "mouse neuroblastoma Neuro 2A cells", "test": "Cytotoxicity against neuroblastoma Neuro 2A cells (nonspecific esterase activity assay)", "type": "cell-based", "details": "mouse neuroblastoma Neuro 2A cells", "protocol": "as §1, §2"}, "[4]": {"tested_on": "normal epithelial JB-6 cells", "test": "Cytotoxicity against normal epithelial JB-6 cells (nonspecific esterase activity assay)", "type": "cell-based, mouse", "details": "normal epithelial JB-6 cells", "protocol": "as §1, §2"}, "[5]": {"tested_on": "human colorectal adenocarcinoma HT-29 cells", "test": "MTS assay, cell viability of HT-29 cells", "type": "cell-based", "details": "0–20 μM, 24 h", "protocol": "as §1\nThe HT-29 cells (1.0 × 10^4/well) were seeded in 96-well plates for 24 h at 37 °C in 5% CO2 incubator. The cells were treated with the tested substances at concentrations range from 0 to 20 μM for an additional 24 h. Subsequently, cells were incubated with 15 μL MTS reagent for 3 h and the absorbance in each well was measured at 490/630 nm using microplate reader “Power Wave XS” (Bio Tek, Winooski, VT, USA). All the experiments were repeated three times, and the mean absorbance values were calculated. The results are expressed as the percentage of inhibition that produced a reduction in absorbance by compound’s treatment compared to the non-treated cells (control)."}, "[6]": {"tested_on": "human colorectal adenocarcinoma HT-29 cells", "test": "Soft agar assay, colony formation and growth of HT-29 cells", "type": "cell-based", "details": "0–10 μM, 14 days, read-out: Soft Agar Assay ICCF50 (inhibition of colony formation)", "protocol": "as §1\nThe HT-29 cells (8.0 × 10^3) were seeded in 6-well plate and treated with the tested compounds at concentrations range 0–10 μM in 1 mL of 0.3% Basal Medium Eagle (BME) agar containing 10% FBS, 2mM L-glutamine, and 25 μg/mL gentamicin. The cultures were maintained at 37 °C in a 5% CO2 incubator for 14 days, and the cell’s colonies were scored using a microscope “Motic AE 20” (Scientific Instrument Company, Campbell, CA, USA) and the Motic Image Plus version 2.0 (Scientific Instrument Company, Campbell, CA, USA) computer program."}}, "data": [{"smiles": "C=C(C)CCC[C@]1(C)OC(=O)[C@]23CC=C4[C@@H](CC[C@H]5C(C)(C)[C@@H](O[C@@H]6OC[C@@H](O)[C@H](O)[C@H]6O[C@@H]6O[C@H](C)[C@@H](O[C@@H]7O[C@H](COS(=O)(=O)[O-])[C@@H](O)[C@H](O[C@@H]8O[C@H](COS(=O)(=O)[O-])[C@@H](O)[C@H](OC)[C@H]8O)[C@H]7O)[C@H](O)[C@H]6O)CC[C@]45C)[C@]2(C)CC(=O)[C@@H]31.[Na+].[Na+]", "note": "[Psolusoside A, 3β-O-[6-O-sodium sulfate-3-O-methyl-β-D-glucopyranosyl-(1→3)-6-O-sodium-sulfate-β-D-glucopyranosyl-(1→4)-β-D-quinovopyranosyl-(1→2)-β-D-xylopyranosyl]-16-ketoholosta-9(11),25-diene, reference compound]", "values": [{"measurement": "EC50", "setting": "[1]", "result": 1400, "unit": "nM"}, {"measurement": "cytotoxic action against mouse Ehrlich carcinoma cells (in words)", "setting": "[2]; ascite form", "result": "moderate cytotoxic action"}, {"measurement": "EC50", "setting": "[2]; ascite form of mouse Ehrlich carcinoma cells, read-out: Cytotoxicity EC50, Ehrlich carcinoma", "result": 30.9, "unit": "µM"}, {"measurement": "EC50", "setting": "[3]", "result": 2900, "unit": "nM"}, {"measurement": "EC50", "setting": "[4]", "result": 7.5, "unit": "µM"}, {"measurement": "IC50", "setting": "[5]", "result": "> 20", "unit": "µM"}, {"measurement": "IC50", "setting": "[6]", "result": "> 10", "unit": "µM"}]}]}
